Test results from ChEMBL document CHEMBL3044943, “Nematicidal prenylated flavanones from Phyllanthus niruri” (2008).
Values after ≈ are worked out from the molar mass of the structure shown.

Assays:
Meloidogyne incognita = assay: Nematicidal activity against Meloidogyne incognita (root-knot nematode) second stage juveniles after 72 hr; type: functional
Rotylenchulus reniformis = assay: Nematicidal activity against Rotylenchulus reniformis (reniform nematode) after 72 hr; type: functional

SMILES	LC50 (Meloidogyne incognita)	LC50 (Rotylenchulus reniformis)
CC(C)=CCc1cccc2c1OC(c1ccccc1)CC2=O (stereo not given)	70.9 µg/mL (≈ 242 µM)	103 µg/mL (≈ 352 µM)
CC(C)=CCc1cccc2c1OC(c1ccc(O)cc1)CC2=O (stereo not given)	14.5 µg/mL (≈ 47 µM)	3.3 µg/mL (≈ 10.7 µM)
CNC(=O)Oc1cccc2c1OC(C)(C)C2 [CARBOFURAN]	–	3.1 µg/mL (≈ 14 µM)
